Results taken from patent publication US8343458B2, “Probes for in vivo targeting of active cysteine proteases” (The Board of Trustees of the Leland Stanford Junior …, priority 2008, dated 2013).
Where “and” joins values, the source holds several entries; their conditions need not be identical. Equal entries are not always repeated.

How the values were obtained:
C2C12/Ras tumor = experiment: MicroPET imaging of C2C12/Ras tumor-bearing mice; assay type: in vivo, mouse; details: 2 and 24 hours post injection, 5.55 MBq i.v.
Description: FIG. 3 is a composite photograph showing mouse uptake of labeled probe, i.e., a series of photographs of imaged mice. For purposes of reproduction, the image is converted to black and white and reversed. Lightest to darkest is a range between 0% ID (injected dose)/g and 1% ID/g. […] Arrows indicate location of tumors.
We performed micro PET imaging of mice bearing the MDA-MB-435 and C2C12/Ras tumors. The static microPET images (5 or 10-min scan, three tumor bearing mice were used for each study) of ^64Cu-Z-FK(DOTA)-AOMK are illustrated in coronal images of the subcutaneously implanted tumor-bearing mice (FIG. 3). […] The tumor, indicated by the arrow, is not clearly illuminated.
PET imaging of tumor-bearing mice is performed on a microPET R4 rodent model scanner (Concorde Microsystems Inc, Knoxyille, Tenn.). The mice bearing C2C12/Ras and MDA-MB-435 tumors were injected with 5.55 MBq (150 μCi) of ^64Cu AOMK probe via the tail vein. At different times p.i., the mice were anesthetized with 2% isoflurane, and placed in the prone position and near the center of the field of view of microPET. The 5 or 10-min static scans were obtained and the images were reconstructed by a two-dimensional ordered subsets expectation maximum (OSEM) algorithm.

C2C12/Ras tumors = experiment: Biodistribution in nude mice bearing subcutaneous C2C12/Ras tumors; assay type: in vivo, mouse; details: for Biodistribution: Blood / Biodistribution: Bone / Biodistribution: Brain / Biodistribution: Heart / Biodistribution: Intestines / Biodistribution: Kidney / Biodistribution: Liver / Biodistribution: Lung / Biodistribution: Muscle / Biodistribution: Pancreas / Biodistribution: Spleen / Biodistribution: Stomach / Biodistribution: Tumor / Tumor/Blood ratio / Tumor/Muscle ratio: C2C12/Ras tumor mice, i.v. 740 kBq
Experimental: All animal studies were carried out in compliance with Federal and local institutional rules for the conduct of animal experimentation. Female athymic nude mice (nu/nu) were obtained from Charles River Laboratories (Boston, Mass.) at 7-8 weeks old and kept under sterile conditions. The nude mice were inoculated subcutaneously in the right shoulder with 2×10^6 cultured C2C12/Ras cells or 5×10^6 MDA-MB-435 cells. When the tumors reach 0.5-0.8 cm in diameter, the tumor bearing mice were subjected to in vivo biodistribution studies. For biodistribution studies, the mice bearing C2C12/Ras or MDA-MB-435 tumor xenografts (n=3 for each group) were injected with 740 KBq (20 μCi) of ^64Cu labeled tracer through the tail vein and sacrificed at different time points post injection (p.i.). Tumor and normal tissues of interest were removed and weighed, and their radioactivity was measured in a gamma-counter. The radioactivity uptake in the tumor and normal tissues was expressed as a percentage of the injected radioactive dose per gram of tissue (% ID/g).
We next examined the overall biodistribution of ^64Cu-Z-FK(DOTA)-AOMK using athymic nude mice carrying subcutaneously grafted C2C12/Ras and MDA-MB-435 tumors. […] Importantly, we observed rapid accumulation of radioactivity in the C2C12/Ras tumors expressing high levels of cysteine cathepsins (0.35±0.13% ID/g at 0.5 h p.i.). This activity remained in the tumors resulting in an uptake of 0.27±0.05% ID/g at 24 h p.i. For the MDA-MB-435 tumors with lower cysteine cathepsin expression, tumor uptake was approximately 2 fold lower at each time point relative to the C2C12/Ras tumors (P<0.05). […] The highest radioactivity was found in the liver due to high endogenous expression of various cysteine cathepsins. Moderate renal accumulation was also observed at all times in both tumor models.
Data are expressed as the percentage administered activity (injected dose) per gram of tissue (% ID/g) after intravenous injection of 740 kBq (20 μCi) of ^64Cu-Z-FK(DOTA)-AOMK at 0.5, 2, and 24 h pi (n=3). Significant lower tumor uptake and tumor/blood, tumor/muscle ratio in MDA-MB-435 breast cancer (P<0.05) were observed.

Cc1cccc(C)c1C(=O)OCC(=O)[C@H](CCCCNC(=O)CN1CCN(CC(=O)[O-])CCN(CC(=O)O)CCN(CC(=O)[O-])CC1)NC(=O)[C@H](Cc1ccccc1)NC(=O)OCc1ccccc1.[64Cu+2] [^64Cu-Z-FK(DOTA)-AOMK]
MicroPET tumor visualization / contrast (C2C12/Ras tumor): clearly visualized with good tumor to contralateral background contrast
Biodistribution: Blood (C2C12/Ras tumors; 0.5 h p.i.): 0.24 ± 0.07 % ID/g
Biodistribution: Bone (C2C12/Ras tumors; 0.5 h p.i.): 0.09 ± 0.02 % ID/g
Biodistribution: Brain (C2C12/Ras tumors; 0.5 h p.i.): 0.04 ± 0.03 % ID/g
Biodistribution: Heart (C2C12/Ras tumors; 0.5 h p.i.): 0.25 ± 0.02 % ID/g
Biodistribution: Intestines (C2C12/Ras tumors; 0.5 h p.i.): 1.84 ± 0.57 % ID/g
Biodistribution: Kidney (C2C12/Ras tumors; 0.5 h p.i.): 0.74 ± 0.29 % ID/g
Biodistribution: Liver (C2C12/Ras tumors; 0.5 h p.i.): 3.71 ± 1.04 % ID/g
Biodistribution: Lung (C2C12/Ras tumors; 0.5 h p.i.): 0.50 ± 0.17 % ID/g
Biodistribution: Muscle (C2C12/Ras tumors; 0.5 h p.i.): 0.06 ± 0.01 % ID/g
Biodistribution: Pancreas (C2C12/Ras tumors; 0.5 h p.i.): 0.25 ± 0.22 % ID/g
Biodistribution: Spleen (C2C12/Ras tumors; 0.5 h p.i.): 0.35 ± 0.24 % ID/g
Biodistribution: Stomach (C2C12/Ras tumors; 0.5 h p.i.): 0.63 ± 0.69 % ID/g
Biodistribution: Tumor (C2C12/Ras tumors; 0.5 h p.i.): 0.35±0.13 % ID/g
Tumor/Blood ratio (C2C12/Ras tumors; 0.5 h p.i.): 1.41 ± 0.32
Tumor/Muscle ratio (C2C12/Ras tumors; 0.5 h p.i.): 5.24 ± 1.35
Biodistribution: Blood (C2C12/Ras tumors; 2 h p.i.): 0.24 ± 0.03 % ID/g
Biodistribution: Bone (C2C12/Ras tumors; 2 h p.i.): 0.10 ± 0.01 % ID/g
Biodistribution: Brain (C2C12/Ras tumors; 2 h p.i.): 0.02 ± 0.00 % ID/g
Biodistribution: Heart (C2C12/Ras tumors; 2 h p.i.): 0.30 ± 0.08 % ID/g
Biodistribution: Intestines (C2C12/Ras tumors; 2 h p.i.): 1.38 ± 0.54 % ID/g
Biodistribution: Kidney (C2C12/Ras tumors; 2 h p.i.): 0.67 ± 0.19 % ID/g
Biodistribution: Liver (C2C12/Ras tumors; 2 h p.i.): 3.59 ± 1.01 % ID/g
Biodistribution: Lung (C2C12/Ras tumors; 2 h p.i.): 0.59 ± 0.22 % ID/g
Biodistribution: Muscle (C2C12/Ras tumors; 2 h p.i.): 0.05 ± 0.01 % ID/g
Biodistribution: Pancreas (C2C12/Ras tumors; 2 h p.i.): 0.18 ± 0.08 % ID/g
Biodistribution: Spleen (C2C12/Ras tumors; 2 h p.i.): 0.24 ± 0.04 % ID/g
Biodistribution: Stomach (C2C12/Ras tumors; 2 h p.i.): 0.32 ± 0.06 % ID/g
Biodistribution: Tumor (C2C12/Ras tumors; 2 h p.i.): 0.30 ± 0.03 % ID/g
Tumor/Blood ratio (C2C12/Ras tumors; 2 h p.i.): 1.25 and 1.25 ± 0.21
Tumor/Muscle ratio (C2C12/Ras tumors; 2 h p.i.): 5.64 and 5.64 ± 0.98
Biodistribution: Blood (C2C12/Ras tumors; 24 h p.i.): 0.28 ± 0.10 % ID/g
Biodistribution: Bone (C2C12/Ras tumors; 24 h p.i.): 0.14 ± 0.10 % ID/g
Biodistribution: Brain (C2C12/Ras tumors; 24 h p.i.): 0.05 ± 0.01 % ID/g
Biodistribution: Heart (C2C12/Ras tumors; 24 h p.i.): 0.46 ± 0.07 % ID/g
Biodistribution: Intestines (C2C12/Ras tumors; 24 h p.i.): 0.46 ± 0.04 % ID/g
Biodistribution: Kidney (C2C12/Ras tumors; 24 h p.i.): 0.72 ± 0.05 % ID/g
Biodistribution: Liver (C2C12/Ras tumors; 24 h p.i.): 1.86 ± 0.57 % ID/g
Biodistribution: Lung (C2C12/Ras tumors; 24 h p.i.): 0.65 ± 0.15 % ID/g
Biodistribution: Muscle (C2C12/Ras tumors; 24 h p.i.): 0.06 ± 0.02 % ID/g
Biodistribution: Pancreas (C2C12/Ras tumors; 24 h p.i.): 0.21 ± 0.06 % ID/g
Biodistribution: Spleen (C2C12/Ras tumors; 24 h p.i.): 0.42 ± 0.06 % ID/g
Biodistribution: Stomach (C2C12/Ras tumors; 24 h p.i.): 0.27 ± 0.11 % ID/g
Biodistribution: Tumor (C2C12/Ras tumors; 24 h p.i.): 0.27±0.05 % ID/g
Tumor/Blood ratio (C2C12/Ras tumors; 24 h p.i.): 0.99 ± 0.24
Tumor/Muscle ratio (C2C12/Ras tumors; 24 h p.i.): 4.07 ± 1.13
Blood clearance (C2C12/Ras tumors; both tumor models, nude mice, i.v.): rapid clearance in blood
